{"source": "ChEMBL document CHEMBL4304774", "about": "“Bisubstrate Inhibitors of Nicotinamide N-Methyltransferase (NNMT) with Enhanced Activity” (J Med Chem, 2019)", "note": "Calls of active or inactive are those of the source. No cut-off for these calls is given here.", "data": [{"test_system": "HSC-2", "assay": "Antiproliferative activity against human HSC2 cells assessed as reduction in cell viability at 1 to 100 uM measured up to 72 hrs by MTT assay", "format": "functional, cell-based", "values": [{"smiles": "NC(=O)c1cccc(CN(CC[C@H](N)C(=O)O)C[C@H]2O[C@@H](n3cnc4c(N)ncnc43)[C@H](O)[C@@H]2O)c1", "Activity": "inactive"}, {"smiles": "Nc1ncnc2c1ncn2[C@@H]1O[C@H](CN(CCC[C@H](N)C(=O)O)Cc2ccc3ccccc3c2)[C@@H](O)[C@H]1O", "Activity": "inactive"}, {"smiles": "NC(=O)c1cccc(CCN(CCC[C@H](N)C(=O)O)C[C@H]2O[C@@H](n3cnc4c(N)ncnc43)[C@H](O)[C@@H]2O)c1", "Activity": "inactive"}]}, {"test_system": "HSC-2", "assay": "Antiproliferative activity against human HSC2 cells assessed as reduction in cell viability at 100 uM measured after 72 hrs by MTT assay relative to control", "format": "functional", "units": {"Activity": "%"}, "values": [{"smiles": "Nc1ncnc2c1ncn2[C@@H]1O[C@H](CN(CC[C@H](N)C(=O)O)Cc2ccc3ccccc3c2)[C@@H](O)[C@H]1O", "Activity": 44}]}, {"test_system": "HSC-2", "assay": "Antiproliferative activity against human HSC2 cells assessed as reduction in cell viability at 100 uM measured after 48 hrs by MTT assay relative to control", "format": "functional", "units": {"Activity": "%"}, "values": [{"smiles": "Nc1ncnc2c1ncn2[C@@H]1O[C@H](CN(CC[C@H](N)C(=O)O)Cc2ccc3ccccc3c2)[C@@H](O)[C@H]1O", "Activity": 27}]}, {"test_system": "HSC-2", "assay": "Antiproliferative activity against human HSC2 cells assessed as reduction in cell viability at 50 uM measured after 48 hrs by MTT assay relative to control", "format": "functional", "units": {"Activity": "%"}, "values": [{"smiles": "Nc1ncnc2c1ncn2[C@@H]1O[C@H](CN(CC[C@H](N)C(=O)O)Cc2ccc3ccccc3c2)[C@@H](O)[C@H]1O", "Activity": 21}]}, {"test_system": "HSC-2", "assay": "Antiproliferative activity against human HSC2 cells assessed as reduction in cell viability at 10 uM measured after 48 hrs by MTT assay relative to control", "format": "functional", "units": {"Activity": "%"}, "values": [{"smiles": "Nc1ncnc2c1ncn2[C@@H]1O[C@H](CN(CC[C@H](N)C(=O)O)Cc2ccc3ccccc3c2)[C@@H](O)[C@H]1O", "Activity": 20}]}, {"target": "T1, Nicotinamide N-methyltransferase (Homo sapiens, UniProt P40261)", "T1 sequence (P40261 whole entry)": "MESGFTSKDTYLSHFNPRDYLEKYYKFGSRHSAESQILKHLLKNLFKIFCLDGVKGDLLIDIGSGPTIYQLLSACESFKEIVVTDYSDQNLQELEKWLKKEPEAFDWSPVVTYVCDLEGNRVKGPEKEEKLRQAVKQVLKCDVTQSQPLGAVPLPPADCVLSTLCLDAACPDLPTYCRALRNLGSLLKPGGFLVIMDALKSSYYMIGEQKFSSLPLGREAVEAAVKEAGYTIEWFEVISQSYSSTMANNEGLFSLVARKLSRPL", "assay": "Inhibition of wild-type human full length NNMT expressed in Escherichia coli BL21(DE3) cells assessed as reduction in 1-methyl-nicotinamide formation pre-incubated for 10 mins followed by AdoMet and nicotinamide addition measured after 30 mins by UHP-HILIC/Q-TOF-MS analysis", "units": {"IC50": "µM"}, "values": [{"smiles": "COC(=O)c1cccc(CN(CCCCC(=O)O)C[C@H]2O[C@@H](n3cnc4c(N)ncnc43)[C@H](O)[C@@H]2O)c1", "IC50": "> 250"}, {"smiles": "NC(=O)CCCN(Cc1cccc(C(N)=O)c1)C[C@H]1O[C@@H](n2cnc3c(N)ncnc32)[C@H](O)[C@@H]1O", "IC50": "> 250"}, {"smiles": "CC(C)N(Cc1cccc(C(N)=O)c1)C[C@H]1O[C@@H](n2cnc3c(N)ncnc32)[C@H](O)[C@@H]1O", "IC50": "> 250"}, {"smiles": "COC(=O)c1cccc(CN(C[C@H]2O[C@@H](n3cnc4c(N)ncnc43)[C@H](O)[C@@H]2O)C(C)C)c1", "IC50": "> 250"}, {"smiles": "Nc1ncnc2c1ncn2[C@@H]1O[C@H](CN(CCCC(=O)O)Cc2ccc3ccccc3c2)[C@@H](O)[C@H]1O", "IC50": "> 250"}, {"smiles": "COC(=O)c1cccc(CN(CCCC(N)=O)C[C@H]2O[C@@H](n3cnc4c(N)ncnc43)[C@H](O)[C@@H]2O)c1", "IC50": "> 250"}, {"smiles": "Nc1ncnc2c1ncn2[C@@H]1O[C@H](CN(CCCCC(=O)O)Cc2cccc(C(=O)O)c2)[C@@H](O)[C@H]1O", "IC50": "> 250"}, {"smiles": "Nc1ncnc2c1ncn2[C@@H]1O[C@H](C[C@@H](N)CC[C@H](N)C(=O)O)[C@@H](O)[C@H]1O", "note": "[SINEFUNGIN]", "IC50": 12.5}, {"smiles": "COC(=O)c1cccc(CN(CCCCC(N)=O)C[C@H]2O[C@@H](n3cnc4c(N)ncnc43)[C@H](O)[C@@H]2O)c1", "IC50": "> 250"}, {"smiles": "NC(=O)CCCN(Cc1cccc(C(=O)O)c1)C[C@H]1O[C@@H](n2cnc3c(N)ncnc32)[C@H](O)[C@@H]1O", "IC50": "> 250"}, {"smiles": "Nc1ncnc2c1ncn2[C@@H]1O[C@H](CN(CCC[C@H](N)C(=O)O)Cc2ccc3ccccc3c2)[C@@H](O)[C@H]1O", "IC50": "> 250"}, {"smiles": "CC(C)N(Cc1cccc(C(=O)O)c1)C[C@H]1O[C@@H](n2cnc3c(N)ncnc32)[C@H](O)[C@@H]1O", "IC50": "> 250"}, {"smiles": "NC(=O)CCCN(Cc1ccc2ccccc2c1)C[C@H]1O[C@@H](n2cnc3c(N)ncnc32)[C@H](O)[C@@H]1O", "IC50": 111}, {"smiles": "Nc1ncnc2c1ncn2[C@@H]1O[C@H](CN(CCCCC(=O)O)Cc2ccc3ccccc3c2)[C@@H](O)[C@H]1O", "IC50": "> 250"}, {"smiles": "COC(=O)c1cccc(CN(CCCC(=O)O)C[C@H]2O[C@@H](n3cnc4c(N)ncnc43)[C@H](O)[C@@H]2O)c1", "IC50": "> 250"}, {"smiles": "NC(=O)c1cccc(CCN(CCC[C@H](N)C(=O)O)C[C@H]2O[C@@H](n3cnc4c(N)ncnc43)[C@H](O)[C@@H]2O)c1", "IC50": 4.36}, {"smiles": "Nc1ncnc2c1ncn2[C@@H]1O[C@H](CSCC[C@H](N)C(=O)O)[C@@H](O)[C@H]1O", "note": "[S-ADENOSYLHOMOCYSTEINE]", "IC50": 35.3}, {"smiles": "Nc1ncnc2c1ncn2[C@@H]1O[C@H](CN(CCCC(=O)O)Cc2cccc(C(=O)O)c2)[C@@H](O)[C@H]1O", "IC50": "> 250"}, {"smiles": "CC(C)N(Cc1ccc2ccccc2c1)C[C@H]1O[C@@H](n2cnc3c(N)ncnc32)[C@H](O)[C@@H]1O", "IC50": 130}, {"smiles": "NC(=O)CCCCN(Cc1cccc(C(N)=O)c1)C[C@H]1O[C@@H](n2cnc3c(N)ncnc32)[C@H](O)[C@@H]1O", "IC50": "> 250"}, {"smiles": "NC(=O)CCCCN(Cc1cccc(C(=O)O)c1)C[C@H]1O[C@@H](n2cnc3c(N)ncnc32)[C@H](O)[C@@H]1O", "IC50": "> 250"}, {"smiles": "NC(=O)c1cccc(CN(CCCC(=O)O)C[C@H]2O[C@@H](n3cnc4c(N)ncnc43)[C@H](O)[C@@H]2O)c1", "IC50": "> 250"}, {"smiles": "NC(=O)c1cccc(CN(CCCCC(=O)O)C[C@H]2O[C@@H](n3cnc4c(N)ncnc43)[C@H](O)[C@@H]2O)c1", "IC50": "> 250"}]}]}
